US10023612B2, “Method of treating endometriosis” (ValiRx PLC, priority 2011, dated 2018)
Where “and” joins values, the source holds several entries; their conditions need not be identical. Equal values may be shown once.

Columns and labels:
[1] = mouse, in vivo
Description: Offspring from dosed females were mated and checked for fertility to determine possible inheritable effects.

[2] = system: endometriosis lesions (plugs of uterine tissue); assay: Dose ranging prevention study, transplanted plugs of uterine tissue; type: in vivo, C57BL6 mice; details: for Lesion burden Ave / Lesion growth Ave: average per mouse; for Lesion burden Mean / Lesion establishment Mean / Lesion growth Mean: group mean; for Lesion burden P1 / Lesion burden P2 / Lesion burden P3 / Lesion burden P4 / Lesion burden P5 / Lesion burden P6 / Lesion growth M1 / Lesion growth M2 / Lesion growth P1 / Lesion growth P2 / Lesion growth P3 / Lesion growth P4 / Lesion establishment M1 / Lesion establishment M2 / Lesion establishment P1 / Lesion establishment P2 / Lesion establishment P3 / Lesion establishment P4: individual mouse; for Lesion establishment M1 / Lesion establishment M2 / Lesion establishment P1 / Lesion establishment P2 / Lesion establishment P3 / Lesion establishment P4: 1 or 0; for Lesion establishment Ave: per mouse
[3] = mouse, in vivo; remark: listed apart in the source
Procedure: 8-10 week old, female nulliparous C57BL6 mice were acclimatised for 1 week. A group of 10 female animals were dosed with 10 ng of peptide injected subcutaneously 3 days prior to experimentation with a control group of 10 animals treated with vehicle alone.
5 male C57BL6 animals were introduced and the females checked daily for mucous plug (before 9 a.m.). When mucous plug was recorded the females were evaluated for:
a) Length of possible pregnancy (days)
c) Anomalies in offspring

[4] = system: endometriosis lesion; assay: First study: in-vivo model of endometriosis, tissue from K-rasV12/Ah-Cre/ROSA26R-LacZ donor mice in wild-type animals; details: four treated animals, injected for 21 days
Procedure: In a first study, a total of 4 treatment and 5 control animals were generated in a novel in-vivo model of endometriosis (Research Horizons, University of Cambridge, 2009 Issue 8, GB 0715635.9) K-rasV12/Ah-Cre transgenic mice were crossed with Rosa26R mice to generate KrasV12+/−/Ah-Cre+/−/ROSA26R-LacZ+/− transgenic mice. The F1 offspring were inbred to generate F2 K-rasV12+/−/Ah-Cre+/+/ROSA26R-LacZ+/+ transgenic mice. The presence of the transgenes was determined by PCR using gene specific primers for K-ras, Cre and Rosa26R-LacZ. Tissue was collected from donor animals previously treated with hormones etc. and was divided between wild-type animals that were then injected with drug or vehicle for 21 days.

- fertility of offspring from dosed females [1]: no abnormalities noted
- fertility of mice [3]: does not affect their fertility
Substance: Ac-PPPHPHARIK-NH2 [ValiRx1, Ac-Pro-Pro-Pro-His-Pro-His-Ala-Arg-Ile-Lys-NH2]
- lesion growth following treatment vs control group ([2]; 1 ng, 10 ng or 100 ng s.c. daily): significantly reduced
- Lesion burden Ave ([2]; 1 ng/mouse s.c. daily): 1.1 mm^2 and 1.9 mm^2 and 12.1 mm^2 and 6.5 mm^2 and 8.5 mm^2
- Lesion growth Ave ([2]; 1 ng/mouse s.c. daily): 6.5 mm^2 and 8.5 mm^2 and 1.3 mm^2 and 1.9 mm^2 and 12.1 mm^2
- Lesion burden Mean ([2]; 1 ng/mouse s.c. daily): 6.02 mm^2
- Lesion establishment Mean ([2]; 1 ng/mouse s.c. daily): 96.67%
- Lesion growth Mean ([2]; 1 ng/mouse s.c. daily): 6.23 mm^2
- Lesion burden P1 ([2]; 1 ng/mouse s.c. daily): 1.8 mm^2 and 1.1 mm^2 and 4.2 mm^2 and 15.1 mm^2 and 10.2 mm^2
- Lesion burden P2 ([2]; 1 ng/mouse s.c. daily): 0.2 mm^2 and 3.1 mm^2 and 16.7 mm^2 and 5.7 mm^2 and 10.6 mm^2
- Lesion burden P3 ([2]; 1 ng/mouse s.c. daily): 0.1 mm^2 and 2.5 mm^2 and 15.2 mm^2 and 8.0 mm^2 and 16.6 mm^2
- Lesion burden P4 ([2]; 1 ng/mouse s.c. daily): 0.0 mm^2 and 0.2 mm^2 and 17.0 mm^2 and 3.8 mm^2 (2×)
- Lesion burden P5 ([2]; 1 ng/mouse s.c. daily): 3.5 mm^2 and 1.1 mm^2 and 11.2 mm^2 and 0.2 mm^2 and 0.5 mm^2
- Lesion burden P6 ([2]; 1 ng/mouse s.c. daily): 1.1 mm^2 and 3.5 mm^2 and 8.0 mm^2 and 6.2 mm^2 and 9.4 mm^2
- Lesion growth M1 ([2]; 1 ng/mouse s.c. daily): 0.196 mm^2 and 0.503 mm^2 and 3.456 mm^2 and 1.131 mm^2 and 11.2 mm^2
- Lesion growth M2 ([2]; 1 ng/mouse s.c. daily): 6.158 mm^2 and 9.425 mm^2 and 1.131 mm^2 and 3.464 mm^2 and 8.042 mm^2
- Lesion growth P1 ([2]; 1 ng/mouse s.c. daily): 1.131 mm^2 and 4.155 mm^2 and 15.1 mm^2 and 10.18 mm^2 and 1.767 mm^2
- Lesion growth P2 ([2]; 1 ng/mouse s.c. daily): 3.142 mm^2 and 16.74 mm^2 and 5.694 mm^2 and 10.56 mm^2 and 0.196 mm^2
- Lesion growth P3 ([2]; 1 ng/mouse s.c. daily): 2.545 mm^2 and 15.21 mm^2 and 8.042 mm^2 and 16.62 mm^2 and 0.126 mm^2
- Lesion growth P4 ([2]; 1 ng/mouse s.c. daily): 3.801 mm^2 (2×) and 0.196 mm^2 and 16.96 mm^2
- Lesion establishment M1 ([2]; 1 ng/mouse s.c. daily): 1
- Lesion establishment M2 ([2]; 1 ng/mouse s.c. daily): 1
- Lesion establishment P1 ([2]; 1 ng/mouse s.c. daily): 1
- Lesion establishment P2 ([2]; 1 ng/mouse s.c. daily): 1
- Lesion establishment P3 ([2]; 1 ng/mouse s.c. daily): 1
- Lesion establishment P4 ([2]; 1 ng/mouse s.c. daily): 1 (4×) and 0
- Lesion establishment Ave ([2]; 1 ng/mouse s.c. daily): 100% (4×) and 83.33%
- Lesion burden Ave ([2]; 10 ng/mouse s.c. daily): 2.9 mm^2 and 6.7 mm^2 and 11.3 mm^2 and 3.3 mm^2 and 3.5 mm^2
- Lesion growth Ave ([2]; 10 ng/mouse s.c. daily): 2.9 mm^2 and 6.7 mm^2 and 11.3 mm^2 and 3.3 mm^2 and 4.2 mm^2
- Lesion burden Mean ([2]; 10 ng/mouse s.c. daily): 5.53 mm^2
- Lesion establishment Mean ([2]; 10 ng/mouse s.c. daily): 96.67%
- Lesion growth Mean ([2]; 10 ng/mouse s.c. daily): 5.72 mm^2
- Lesion burden P1 ([2]; 10 ng/mouse s.c. daily): 1.0 mm^2 and 7.3 mm^2 and 12.6 mm^2 and 3.1 mm^2 and 1.1 mm^2
- Lesion burden P2 ([2]; 10 ng/mouse s.c. daily): 3.5 mm^2 (2×) and 10.0 mm^2 and 7.0 mm^2 and 2.5 mm^2
- Lesion burden P3 ([2]; 10 ng/mouse s.c. daily): 10.9 mm^2 and 4.5 mm^2 and 9.6 mm^2 and 3.5 mm^2 (2×)
- Lesion burden P4 ([2]; 10 ng/mouse s.c. daily): 1.0 mm^2 and 6.7 mm^2 and 5.4 mm^2 and 3.0 mm^2 and 0.0 mm^2
- Lesion burden P5 ([2]; 10 ng/mouse s.c. daily): 1.0 mm^2 and 7.1 mm^2 and 21.1 mm^2 and 3.5 mm^2 and 4.0 mm^2
- Lesion burden P6 ([2]; 10 ng/mouse s.c. daily): 0.2 mm^2 and 4.5 mm^2 and 12.1 mm^2 and 3.1 mm^2 and 9.7 mm^2
- Lesion growth M1 ([2]; 10 ng/mouse s.c. daily): 0.95 mm^2 and 7.069 mm^2 and 21.11 mm^2 and 3.464 mm^2 and 3.958 mm^2
- Lesion growth M2 ([2]; 10 ng/mouse s.c. daily): 0.196 mm^2 and 4.524 mm^2 and 12.06 mm^2 and 3.142 mm^2 and 9.66 mm^2
- Lesion growth P1 ([2]; 10 ng/mouse s.c. daily): 0.95 mm^2 and 7.288 mm^2 and 12.57 mm^2 and 3.142 mm^2 and 1.131 mm^2
- Lesion growth P2 ([2]; 10 ng/mouse s.c. daily): 3.464 mm^2 (2×) and 10.02 mm^2 and 7.037 mm^2 and 2.545 mm^2
- Lesion growth P3 ([2]; 10 ng/mouse s.c. daily): 10.95 mm^2 and 4.524 mm^2 and 9.621 mm^2 and 3.464 mm^2 (2×)
- Lesion growth P4 ([2]; 10 ng/mouse s.c. daily): 0.95 mm^2 and 6.739 mm^2 and 5.372 mm^2 and 2.969 mm^2
- Lesion establishment M1 ([2]; 10 ng/mouse s.c. daily): 1
- Lesion establishment M2 ([2]; 10 ng/mouse s.c. daily): 1
- Lesion establishment P1 ([2]; 10 ng/mouse s.c. daily): 1
- Lesion establishment P2 ([2]; 10 ng/mouse s.c. daily): 1
- Lesion establishment P3 ([2]; 10 ng/mouse s.c. daily): 1
- Lesion establishment P4 ([2]; 10 ng/mouse s.c. daily): 1 (4×) and 0
- Lesion establishment Ave ([2]; 10 ng/mouse s.c. daily): 100% (4×) and 83.33%
- Lesion burden Ave ([2]; 100 ng/mouse s.c. daily): 11.8 mm^2 and 1.8 mm^2 and 3.2 mm^2 and 3.0 mm^2 and 2.9 mm^2
- Lesion growth Ave ([2]; 100 ng/mouse s.c. daily): 11.8 mm^2 and 1.8 mm^2 and 3.2 mm^2 and 3.0 mm^2 and 2.9 mm^2
- Lesion burden Mean ([2]; 100 ng/mouse s.c. daily): 4.52 mm^2
- Lesion establishment Mean ([2]; 100 ng/mouse s.c. daily): 100.00%
- Lesion growth Mean ([2]; 100 ng/mouse s.c. daily): 4.52 mm^2
- Lesion burden P1 ([2]; 100 ng/mouse s.c. daily): 7.0 mm^2 and 4.5 mm^2 and 2.8 mm^2 and 2.0 mm^2 and 1.5 mm^2
- Lesion burden P2 ([2]; 100 ng/mouse s.c. daily): 18.5 mm^2 and 2.8 mm^2 and 2.3 mm^2 and 3.1 mm^2 and 3.5 mm^2
- Lesion burden P3 ([2]; 100 ng/mouse s.c. daily): 11.0 mm^2 and 2.3 mm^2 (2×) and 3.5 mm^2 and 4.9 mm^2
- Lesion burden P4 ([2]; 100 ng/mouse s.c. daily): 8.4 mm^2 and 0.2 mm^2 and 3.8 mm^2 and 2.5 mm^2 and 1.8 mm^2
- Lesion burden P5 ([2]; 100 ng/mouse s.c. daily): 12.6 mm^2 and 1.0 mm^2 and 7.5 mm^2 and 3.8 mm^2 and 2.0 mm^2
- Lesion burden P6 ([2]; 100 ng/mouse s.c. daily): 13.2 mm^2 and 0.3 mm^2 (2×) and 2.8 mm^2 and 3.5 mm^2
- Lesion growth M1 ([2]; 100 ng/mouse s.c. daily): 12.57 mm^2 and 0.95 mm^2 and 7.548 mm^2 and 3.801 mm^2 and 2.011 mm^2
- Lesion growth M2 ([2]; 100 ng/mouse s.c. daily): 13.2 mm^2 and 0.283 mm^2 (2×) and 2.835 mm^2 and 3.464 mm^2
- Lesion growth P1 ([2]; 100 ng/mouse s.c. daily): 7.037 mm^2 and 4.453 mm^2 and 2.827 mm^2 and 2.011 mm^2 and 1.539 mm^2
- Lesion growth P2 ([2]; 100 ng/mouse s.c. daily): 18.47 mm^2 and 2.827 mm^2 and 2.27 mm^2 and 3.142 mm^2 and 3.464 mm^2
- Lesion growth P3 ([2]; 100 ng/mouse s.c. daily): 11 mm^2 and 2.27 mm^2 (2×) and 3.464 mm^2 and 4.909 mm^2
- Lesion growth P4 ([2]; 100 ng/mouse s.c. daily): 8.357 mm^2 and 0.196 mm^2 and 3.801 mm^2 and 2.545 mm^2 and 1.767 mm^2
- Lesion establishment M1 ([2]; 100 ng/mouse s.c. daily): 1
- Lesion establishment M2 ([2]; 100 ng/mouse s.c. daily): 1
- Lesion establishment P1 ([2]; 100 ng/mouse s.c. daily): 1
- Lesion establishment P2 ([2]; 100 ng/mouse s.c. daily): 1
- Lesion establishment P3 ([2]; 100 ng/mouse s.c. daily): 1
- Lesion establishment P4 ([2]; 100 ng/mouse s.c. daily): 1
- Lesion establishment Ave ([2]; 100 ng/mouse s.c. daily): 100%
- lesion establishment ([2]; range over groups of the model): 97.67%-100%
- absence of lesion following treatment [4]: three showed complete absence of lesion
